Results on one compound are retold here after patent publication US20260137642A1 (CANCER PREVENTION PHARMACEUTICALS, INC., priority 2021, published 2026).

One experiment concerns C-peptide. Briefly: Phase I/II trial in new onset T1D: C-peptide by 2-h MMTT. It counts as in vivo, human. Particulars: for C-peptide area under the curve values compared to the placebo group: 6-month post-randomization visit. As for the experimental part:
This study was double-blind, placebo-controlled, 2:1 random assigned, phase I/II clinic trial for individuals with type 1 diabetes. The blinded dose-ranging study enrolled persons with new onset T1D with documented continued residual C-peptide production. […] After a 3 month wash-out period, the durability of effect was assessed. [table]

The next experiment has as its target T1, ODC enzyme activity (Homo sapiens, UniProt P11926).
T1 construct: from tissue; host or cells: human epithelial tissues (in vivo, oral dosing); finding cited from the literature
T1 sequence (P11926 1-461): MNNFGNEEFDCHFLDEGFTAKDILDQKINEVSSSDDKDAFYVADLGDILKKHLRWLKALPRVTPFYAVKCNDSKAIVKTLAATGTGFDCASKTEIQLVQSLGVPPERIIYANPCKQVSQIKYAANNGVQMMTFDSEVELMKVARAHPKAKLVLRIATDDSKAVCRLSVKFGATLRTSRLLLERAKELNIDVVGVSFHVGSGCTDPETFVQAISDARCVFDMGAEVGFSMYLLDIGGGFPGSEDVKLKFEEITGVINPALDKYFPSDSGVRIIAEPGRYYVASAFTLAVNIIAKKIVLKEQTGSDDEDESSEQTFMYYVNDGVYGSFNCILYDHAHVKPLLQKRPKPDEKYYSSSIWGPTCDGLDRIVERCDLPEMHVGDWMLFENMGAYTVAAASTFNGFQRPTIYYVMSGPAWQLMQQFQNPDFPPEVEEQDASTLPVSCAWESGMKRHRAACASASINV
Particulars: oral, daily, humans; cited from earlier work.

Experiment [1] has as its system APC-dependent intestinal tumorigenesis. Particulars: mice; cited from earlier work.
For another experiment, the system named is islet replication. Particulars: in vitro; cited from earlier work.
For another experiment, the system named is RINm5F insulinoma cells. The settings on record: cited from earlier work.

On to `NCCCC(N)(C(=O)O)C(F)F` (stereo not shown) [eflornithine, 2,5-diamino-2-(difluoromethyl) pentanoic acid], for which the “C-peptide area under the curve values compared to the placebo group” value with C-peptide (750 mg/m^2 dose) and with C-peptide (1000 mg/m^2 dose) was “significantly higher” throughout. The “β cell function compared to placebo” value with C-peptide (at higher doses, 3-month oral course) was “greater β cell function compared to placebo”. Also, at ODC enzyme activity, the “ODC enzyme activity and polyamine contents in epithelial tissues” value is “inhibits ODC enzyme activity and polyamine contents”. Further, the APC-dependent intestinal tumorigenesis entry in experiment [1] is given as “decrease APC-dependent intestinal tumorigenesis”. Besides, the “Effect on islet replication” value in the experiment on islet replication is listed as “little effect on islet replication”. In addition, the “Insulin content and secretion” value in the experiment with RINm5F insulinoma cells is “improves insulin content and secretion”.
